The source of these data is US9388208B2, “Pyrrolo[1,2-f][1,2,4]triazines useful for treating respiratory syncitial virus infections” (Gilead Sciences, Inc., priority 2013, dated 2016).

Where two headings read alike, the source gives them in different places.

For data set [1], the target named is T1, RSV ribonucleoprotein (RNP) complexes (Human respiratory syncytial virus A, UniProt P28887).
T1 construct: The supernatant (S3) fraction, containing the enriched RSV RNP complexes, was collected; endogenous in cells; host or cells: HEp-2 cells infected with RSV A2; detergent-extracted crude S3 fraction
Briefly: RSV RNP assay (inhibition of RSV RNP transcription). It is filed as biochemical, RSV A2. The conditions noted are these: 90 minute incubation at 30° C., total radiolabeled transcripts. On the procedure:
RSV ribonucleoprotein (RNP) complexes were prepared from a method modified from Mason at al (1). HEp-2 cells were plated at a density of 7.1×10^4 cells/cm^2 in MEM+10% fetal bovine serum (FBS) and allowed to attach overnight at 37° C. (5% CO2). Following attachment, the cells were infected with RSV A2 (M01=5) in 35 mL MEM+2% FBS. At 20 hours post-infection, the media was replaced with MEM+2% FBS supplemented with 2 μg/mL actinomycin D and returned to 37° C. for one hour. The cells were then washed once with PBS and treated with 35 mL of PBS+250 μg/mL lyso-lecithin for one minute, after which all liquid was aspirated. The cells were harvested by scrapping them into 1.2 mL of buffer A [50 mM TRIS acetate (pH 8.0), 100 mM potassium acetate, 1 mM DTT and 2 μg/mL actinomycin D] and lysed by repeated passage through an 18 gauge needle (10 times). The cell lysate was placed in ice for 10 minutes and then centrifuged at 2400g for 10 minutes at 4° C. The supernatant (S1) was removed and the pellet (P1) was disrupted in 600 uL of Buffer B [10 mM TRIS acetate (pH 8.0), 10 mM potassium acetate and 1.5 mM MgCl2] supplemented with 1% Triton X-100 by repeated passage through an 18 gauge needle (10 times). The resuspended pellet was placed in ice for 10 minutes and then centrifuged at 2400g for 10 minutes at 4° C. The supernatant (S2) was removed and the pellet (P2) was disrupted in 600 uL of Buffer B supplemented with 0.5% deoxycholate and 0.1% Tween 40. The resuspended pellet was placed in ice for 10 minutes and then centrifuged at 2400g for 10 minutes at 4° C. The supernatant (S3) fraction, containing the enriched RSV RNP complexes, was collected and the protein concentration determined by UV absorbance at 280 nm. Aliquoted RSV RNP S3 fractions were stored at −80° C.
Transcription reactions contained 25 μg of crude RSV RNP complexes in 30 μL of reaction buffer [50 mM TRIS-acetate (pH 8.0), 120 mM potassium acetate, 5% glycerol, 4.5 mM MgCl2, 3 mM DTT, 2 mM ethyleneglycol-bis(2-aminoethylether)-tetraacetic acid (EGTA), 50 μg/mL BSA, 2.5 U RNasin (Promega), ATP, GTP, UTP, CTP and 1.5 uCi [α-^32P] NTP (3000 Ci/mmol)]. The radiolabeled nucleotide used in the transcription assay was selected to match the nucleotide analog being evaluated for inhibition of RSV RNP transcription. Cold, competitive NTP was added at a final concentration of one-half its Km (ATP=20 μM, GTP=12.5 μM, UTP=6 μM and CTP=2 μM). The three remaining nucleotides were added at a final concentration of 100 μM.
To determine whether nucleotide analogs inhibited RSV RNP transcription, compounds were added using a 6 step serial dilution in 5-fold increments. Following a 90 minute incubation at 30° C., the RNP reactions were stopped with 350 μL of Qiagen RLT lysis buffer and the RNA was purified using a Qiagen RNeasy 96 kit. Purified RNA was denatured in RNA sample loading buffer (Sigma) at 65° C. for 10 minutes and run on a 1.2% agarose/MOPS gel containing 2M formaldehyde. The agarose gel was dried and exposed to a Storm phosphorimager screen and developed using a Storm phosphorimager (GE Healthcare). The concentration of compound that reduced total radiolabeled transcripts by 50% (IC50) was calculated by non-linear regression analysis of two replicates.

For data set [2], the system named is RSV strain A2. Briefly: Anti-RSV activity, infectious cytopathic cell protection assay in HEp-2 cells. It is filed as cell-based, Respiratory Syncytial Virus (RSV). The conditions noted are these: human respiratory syncytial virus. On the procedure: Antiviral activity against RSV is determined using an infectious cytopathic cell protection assay in HEp-2 cells. In this assay, compounds inhibiting viral infection and/or replication produce a cytoprotective effect against the virus-induced cell killing that can be quantified using a cell viability reagent. The techniques used here are novel adaptations of methods described in published literature (Chapman et al., Antimicrob Agents Chemother. 2007, 51(9):3346-53.)
HEp-2 cells are obtained from ATCC (Manassas, VI) and maintained in MEM media supplemented with 10% fetal bovine serum and penicillin/streptomycin. Cells are passaged twice a week and kept at subconfluent stage. Commercial stock of RSV strain A2 (Advanced Biotechnologies, Columbia, Md.) is titered before compound testing to determine the appropriate dilution of the virus stock that generates desirable cytopathic effect in HEp-2 cells.
For antiviral tests, HEp-2 cells are grown in large cell culture flasks to near confluency but not fully so. The compounds to be tested are prediluted in DMSO in 384-well compound dilution plates, either in an 8 or 40 sample per plate standardized dose response format. 3-fold serial dilution increments of each test compound are prepared in the plates and test samples are transferred via acoustic transfer apparatus (Echo, Labcyte) at 100 nl per well into cell culture assay 384-well plates. Each compound dilution is transferred in single or quadruplicate samples into dry assay plates, which are stored until assay is ready to go. The positive and negative controls are laid out in opposite on ends of the plate in vertical blocks (1 column).
Subsequently, an infectious mixture is prepared using an appropriate dilution of virus stock previously determined by titration with cells at a density of 50,000/ml and 20 uL/well is added to test plates w/compounds via automation (uFlow, Biotek). Each plate includes negative and positive controls (16 replicates each) to create 0% and 100% virus inhibition standards, respectively. Following the infection with RSV, testing plates are incubated for 4 days in a 37° C. cell culture incubator. After the incubation, a cell viability reagent, Cell TiterGlo (Promega, Madison, Wis.) is added to the assay plates, which are incubated briefly, and a luminescent readout is measured (Envision, Perkin Elmer) in all the assay plates. The RSV-induced cytopathic effect, percentage inhibition, is determined from the levels of remaining cell viability. These numbers are calculated for each tested concentration relative to the 0% and 100% inhibition controls, and the EC50 value for each compound is determined by non-linear regression as a concentration inhibiting the RSV-induced cytopathic effect by 50%. Various potent anti-RSV tool compounds are used as positive controls for antiviral activity.
(Protection from cytopathic effect is a common read-out in antiviral testing.)

Data set [3] can be described thus: Cytotoxicity assay in HEp-2 cells. It is filed as cell-based. The conditions noted are these: human, uninfected HEp-2 cells, CellTiter Glo. On the procedure: Cytotoxicity of tested compounds is determined in uninfected HEp-2 cells in parallel with the antiviral activity using the cell viability reagent in a similar fashion as described before for other cell types (Cihlar et al., Antimicrob Agents Chemother. 2008, 52(2):655-65.). The same protocol as for the determination of antiviral activity is used for the measurement of compound cytotoxicity except that the cells are not infected with RSV. Instead, an uninfected cell mixture at the same density is added at 20 ul/well to plates containing prediluted compounds, also at 100 nl/sample. Assay plates are then incubated for 4 days followed by a cell viability test using the same CellTiter Glo reagent addition and measurement of luminescent readouts. Untreated cell and cells treated at 2 uM puromycin (Sigma, St. Louis, Mo.) serve as 100% and 0% cell viability control, respectively. The percent of cell viability is calculated for each tested compound concentration relative to the 0% and 100% controls and the CC50 value is determined by non-linear regression as a compound concentration reducing the cell viability by 50%.

Data set [4] can be described thus: Cytotoxicity assay in MT-4 cells. It is filed as cell-based. Particulars: human, Cell-Titer Glo. On the procedure: The MT-4 cell line was obtained from the NIH AIDS Research and Reference Reagent Program (Germantown, Md.) and cultured in RPMI-1640 medium (Irvine Scientific, Santa Ana, Calif., Cat #9160) supplemented with 10% FBS, 100 units/mL penicillin, 100 units/mL streptomycin, and 2 mM L-Glutamine. The MT-4 cells were passaged twice per week to maintain cell densities below 0.6×10^6 cells/mL. Complete RPMI-1640 media containing 100× concentrations of 3-fold serially diluted compound, ranging from 26 nM to 530 μM, were stamped in quadruplicate into black 384-well plates. After compound addition, 2×10^3 MT-4 cells were added to each well using a MicroFlo liquid dispenser (BioTek, Winooski, Vt.) and the cells were cultured for 5 days at 37° C. in a 5% CO2 incubator. Following the incubation the cells were allowed to equilibrate to 25° C. and cell viability was determined by adding 25 μL of Cell-Titer Glo viability reagent. The mixture was incubated for 10 minutes at 25° C., and the luminescence signal was quantified on a Victor Luminescence plate reader. The CC50 value is defined as the concentration of compound that reduces cell viability by 50% as determined by the Cell-Titer Glo signal. The data were analyzed using Pipeline Pilot Plate Data Analytics Collection software (Version 7.0, Accelrys, San Diego, Calif.). CC50 values were calculated from a non-linear regression analysis using a 4-parameter sigmoidal dose-response equation: Y=Bottom+(Top−Bottom)/(1+10^[(Log CC50−X)*HillSlope]) where the Top and Bottom were fixed at 100% and 0% cell viability, respectively. CC50 values were calculated as the average±standard deviation of 3 independent experiments.

[5] abbreviates: 96 h, HEp-2 cells infected with RSV A2, 4 days, Cell TiterGlo, read-out: EC50.
[6] abbreviates: HEp-2 anti-RSV activity, read-out: EC50 (HEp-2 anti-RSV activity).

T1 sequence (P28887 whole entry): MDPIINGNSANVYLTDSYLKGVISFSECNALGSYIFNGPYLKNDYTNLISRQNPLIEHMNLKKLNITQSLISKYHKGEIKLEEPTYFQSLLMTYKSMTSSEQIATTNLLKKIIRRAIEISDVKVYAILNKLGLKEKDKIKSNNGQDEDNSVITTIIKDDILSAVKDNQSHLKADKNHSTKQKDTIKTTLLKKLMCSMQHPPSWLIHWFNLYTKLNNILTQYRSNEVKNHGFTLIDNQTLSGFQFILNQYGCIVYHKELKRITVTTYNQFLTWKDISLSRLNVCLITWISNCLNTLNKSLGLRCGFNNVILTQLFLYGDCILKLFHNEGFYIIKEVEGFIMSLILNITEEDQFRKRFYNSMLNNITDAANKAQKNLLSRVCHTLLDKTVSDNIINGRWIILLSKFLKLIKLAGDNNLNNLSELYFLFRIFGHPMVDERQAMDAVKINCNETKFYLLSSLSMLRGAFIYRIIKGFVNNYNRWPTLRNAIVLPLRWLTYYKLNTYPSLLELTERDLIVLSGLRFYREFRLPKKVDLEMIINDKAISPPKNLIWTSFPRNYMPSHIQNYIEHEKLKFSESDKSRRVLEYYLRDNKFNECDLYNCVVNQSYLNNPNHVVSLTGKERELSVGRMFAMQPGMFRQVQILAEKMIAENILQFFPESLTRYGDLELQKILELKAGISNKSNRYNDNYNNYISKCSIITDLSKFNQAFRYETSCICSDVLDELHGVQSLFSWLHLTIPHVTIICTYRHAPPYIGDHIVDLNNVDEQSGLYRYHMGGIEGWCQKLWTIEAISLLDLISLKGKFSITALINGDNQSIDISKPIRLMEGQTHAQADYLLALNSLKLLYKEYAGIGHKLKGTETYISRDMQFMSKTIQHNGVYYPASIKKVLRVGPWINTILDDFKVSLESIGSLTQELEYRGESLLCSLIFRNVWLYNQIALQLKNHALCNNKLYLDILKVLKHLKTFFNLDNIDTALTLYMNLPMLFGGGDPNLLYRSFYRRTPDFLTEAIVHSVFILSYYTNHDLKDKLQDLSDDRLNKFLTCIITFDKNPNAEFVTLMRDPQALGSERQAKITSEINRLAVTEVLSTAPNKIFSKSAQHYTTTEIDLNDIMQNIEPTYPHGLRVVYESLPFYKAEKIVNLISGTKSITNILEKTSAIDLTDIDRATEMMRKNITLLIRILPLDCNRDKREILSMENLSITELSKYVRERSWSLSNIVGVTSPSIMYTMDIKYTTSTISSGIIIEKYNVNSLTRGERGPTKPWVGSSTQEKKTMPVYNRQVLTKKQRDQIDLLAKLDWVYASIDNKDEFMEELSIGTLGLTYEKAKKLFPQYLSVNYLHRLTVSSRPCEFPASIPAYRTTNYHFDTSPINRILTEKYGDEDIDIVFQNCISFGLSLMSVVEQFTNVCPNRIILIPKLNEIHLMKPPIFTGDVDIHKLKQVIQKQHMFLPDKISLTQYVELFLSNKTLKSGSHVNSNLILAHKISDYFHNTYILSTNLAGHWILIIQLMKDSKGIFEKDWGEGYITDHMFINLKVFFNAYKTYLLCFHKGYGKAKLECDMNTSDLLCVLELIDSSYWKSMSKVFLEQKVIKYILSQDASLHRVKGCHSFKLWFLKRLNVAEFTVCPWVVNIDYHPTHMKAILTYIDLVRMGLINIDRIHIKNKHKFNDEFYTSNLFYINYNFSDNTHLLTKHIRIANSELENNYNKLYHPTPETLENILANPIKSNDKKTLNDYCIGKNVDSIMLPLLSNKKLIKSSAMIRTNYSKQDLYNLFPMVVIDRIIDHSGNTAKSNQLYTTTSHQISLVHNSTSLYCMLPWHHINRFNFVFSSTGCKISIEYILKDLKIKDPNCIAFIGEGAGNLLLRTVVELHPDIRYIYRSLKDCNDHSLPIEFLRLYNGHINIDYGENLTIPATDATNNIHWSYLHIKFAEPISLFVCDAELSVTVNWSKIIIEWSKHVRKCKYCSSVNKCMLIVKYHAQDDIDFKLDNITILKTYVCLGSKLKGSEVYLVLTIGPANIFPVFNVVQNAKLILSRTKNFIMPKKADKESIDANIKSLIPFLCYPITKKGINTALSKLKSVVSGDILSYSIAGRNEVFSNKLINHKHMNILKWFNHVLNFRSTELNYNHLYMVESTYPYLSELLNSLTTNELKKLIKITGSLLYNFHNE
T1 sequence (P03421 whole entry, further chain): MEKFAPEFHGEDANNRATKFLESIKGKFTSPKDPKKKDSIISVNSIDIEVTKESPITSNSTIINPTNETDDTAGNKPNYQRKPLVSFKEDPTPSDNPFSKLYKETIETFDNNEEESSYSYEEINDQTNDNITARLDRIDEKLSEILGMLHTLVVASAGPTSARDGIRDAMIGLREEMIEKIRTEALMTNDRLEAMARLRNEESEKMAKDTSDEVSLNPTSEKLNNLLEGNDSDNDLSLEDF

On to `C[C@@]1(O)[C@H](O)[C@@H](COP(=O)(O)OP(=O)(O)OP(=O)(O)O)O[C@H]1c1ccc2c(N)ncnn12` [((2R,3R,4R,5S)-5-(4-aminopyrrolo[2,1-f][1,2,4]triazin-7-yl)-3,4-dihydroxy-4-methyltetrahydrofuran-2-yl)methyl tetrahydrogen triphosphate, reference compound], for which, in data set [1], inhibition was half-maximal at 8.5 µM (IC50).

Compound `C[C@@]1(F)[C@H](O)[C@@H](COP(=O)(O)OP(=O)(O)OP(=O)(O)O)O[C@H]1c1ccc2c(N)ncnn12` [((2R,3R,4R,5S)-5-(4-aminopyrrolo[2,1-f][1,2,4]triazin-7-yl)-4-fluoro-3-hydroxy-4-methyltetrahydrofuran-2-yl)methyl tetrahydrogen triphosphate, reference compound] had an IC50 in data set [1] above 100 µM.

In data set [1], `N#C[C@]1(COP(=O)(O)OP(=O)(O)OP(=O)(O)O)O[C@@H](c2ccc3c(N)ncnn23)[C@H](F)[C@@H]1O` [Example 6, ((2R,3R,4R,5S)-5-(4-aminopyrrolo[1,2-f][1,2,4]triazin-7-yl)-2-cyano-4-fluoro-3-hydroxytetrahydrofuran-2-yl)methyl tetrahydrogen triphosphate] showed an IC50 of 0.086 µM.

Regarding `[N-]=[N+]=N[C@]1(CO)O[C@@H](c2cc(F)c3c(N)ncnn23)[C@H](F)[C@@H]1O` [Example 21, (2R,3R,4R,5S)-5-(4-amino-5-fluoropyrrolo[2,1-f][1,2,4]triazin-7-yl)-2-azido-4-fluoro-2-(hydroxymethyl)tetrahydrofuran-3-ol], the values for the EC50 in data set [2] (setting [5]) and in data set [2] (setting [6]) were 50 µM and below 100 µM, respectively. In data set [3], this compound came in with a CC50 at 4 days of 36 µM. In data set [4], this compound yielded a CC50 at 5 days of 15 µM.

`N#C[C@]1(CO)O[C@@H](c2cc(F)c3c(N)ncnn23)[C@H](F)[C@@H]1O` [Example 23, (2R,3R,4R,5S)-5-(4-amino-5-fluoropyrrolo[2,1-f][1,2,4]triazin-7-yl)-4-fluoro-3-hydroxy-2-(hydroxymethyl)tetrahydrofuran-2-carbonitrile]: the concentration giving a half-maximal response (EC50) is 23.5 µM in data set [2] (setting [5]) and below 100 µM in data set [2] (setting [6]). Besides, half-maximal cytotoxicity in data set [3] (CC50 at 4 days) was put at 72 µM. Also, half-maximal cytotoxicity in data set [4] (CC50 at 5 days) was put at 21 µM.

In the case of `C[C@]1(CO)O[C@@H](c2ccc3c(N)ncnn23)[C@H](F)[C@@H]1O` [Example 24, (2R,3R,4R,5S)-5-(4-aminopyrrolo[2,1-f][1,2,4]triazin-7-yl)-4-fluoro-2-(hydroxymethyl)-2-methyltetrahydrofuran-3-ol], the EC50 in data set [2] (setting [5]) is 1 µM; in data set [2] (setting [6]), below 100 µM. Besides, the CC50 at 4 days in data set [3] was above 100 µM. Half-maximal cytotoxicity in data set [4] (CC50 at 5 days) was put at 11 µM.

Regarding `N#C[C@]1(CO)O[C@@H](c2cc(F)c3c(N)ncnn23)[C@H](O)[C@@H]1O` [Example 25, (2R,3S,4R,5S)-5-(4-amino-5-fluoropyrrolo[2,1-f][1,2,4]triazin-7-yl)-3,4-dihydroxy-2-(hydroxymethyl)tetrahydrofuran-2-carbonitrile], in data set [2] (setting [5]), the EC50 was found to be 9.2 µM. The same compound returned a CC50 at 4 days in data set [3] above 100 µM. This compound yielded a CC50 at 5 days in data set [4] above 93 µM.

The compound `CCOC(=O)[C@H](C)NP(=O)(OC[C@@]1(C#N)O[C@@H](c2ccc3c(N)ncnn23)[C@H](O)[C@@H]1O)Oc1ccccc1` (stereo partly drawn) [Example 35, (2S)-ethyl 2-(((((2R,3S,4R,5S)-5-(4-aminopyrrolo[2,1-f][1,2,4]triazin-7-yl)-2-cyano-3,4-dihydroxytetrahydrofuran-2-yl)methoxy)(phenoxy)phosphoryl)amino) propanoate] yielded an EC50 in data set [2] (HEp-2, 96 h) of 0.34 µM. In addition, the CC50 at 4 days in data set [3] was above 50 µM. Besides, the CC50 at 5 days in data set [4] worked out at 47 µM.

A word on the IC50: it is the concentration that inhibits the measured activity by half. Broadly, the EC50 is the concentration giving half of the maximal effect. The term CC50 denotes the concentration at which the toxic effect on the cells reaches its halfway point. A higher CC50 goes with lower toxicity to the cells.
